Assay results as given in patent publication US10829520B2, “Beta-hairpin peptidomimetics” (POLYPHOR AG, priority 2015, dated 2020).
Where a SMILES comes first, the peptide text is derived from it. Bridges are numbered along the chain shown (N, C = ends). [ ]: non-standard residue; d: D form. Pen = CC(C)(S)[C@H](N)C(=O)O; Tle = CC(C)(C)[C@H](N)C(=O)O; dNle = CCCC[C@@H](N)C(=O)O; dDab = NCC[C@@H](N)C(=O)O; Nle = CCCC[C@H](N)C(=O)O; Orn = NCCC[C@H](N)C(=O)O; Dab = NCC[C@H](N)C(=O)O; dAze = O=C(O)[C@H]1CCN1; Dap = NC[C@H](N)C(=O)O

Experiments:
Format in all cases: cell-based
[1] = test system: Acinetobacter baumannii DSM 30008; details: DSM 30008
Method in brief: (§1)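 MIC in μg/mL; CLSI microdilution; cation-adjusted Mueller-Hinton II with Polysorbate 80 (0.002%); 10^6 CFU/mL; 35° C, 18-20 h.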

Escherichia coli 926415 = details: 926415
[2] = test system: Acinetobacter baumannii 872842; details: 872842
[3] = test system: Klebsiella pneumoniae 968733; details: 968733
[4] = test system: Pseudomonas aeruginosa ATCC 27853; details: ATCC 27853
Method in brief: as §1

[5] = test system: Klebsiella pneumoniae SSI #3010; details: SSI #3010
Method in brief: as §1

[6] = test system: Escherichia coli ATCC 25922; details: ATCC 25922
Method in brief: as §1

[7] = test system: human red blood cells (hRBC); test: Hemolysis of human red blood cells; details: red cells of human, 1 h, 100 μg/mL
Method in brief: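 Fresh human red blood cells are washed in PBS, then shaken with peptide (100 μg/mL) at 37° C. for 1 h, final erythrocyte density about 0.9×10^9 cells/mL. After centrifugation, diluted supernatants are read at 540 nm against buffer (0%) and Triton X-100 (100%) lysis controls.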

Compound	Acinetobacter baumannii DSM 30008 MIC [1]	Escherichia coli 926415 MIC (Escherichia coli 926415)	Acinetobacter baumannii 872842 MIC [2]	Klebsiella pneumoniae 968733 MIC [3]	Pseudomonas aeruginosa ATCC 27853 MIC [4]	Klebsiella pneumoniae SSI #3010 MIC [5]	Escherichia coli ATCC 25922 MIC [6]	Hemolysis at 100 μg/mL [7]
CC(C)C[C@@H]1NC(=O)[C@@H](CC(C)C)NC(=O)[C@H](CCN)NC(=O)[C@@H](NC(=O)[C@H](CCN)NC(=O)[C@@H](NC(=O)[C@H](CCN)NC(=O)CNC(=O)[C@H](CCN)NC(=O)[C@H](Cc2ccc(O)cc2)NC(=O)[C@H]2NC(=O)[C@H](CC(C)C)NC(=O)[C@@H]3CCCN3C(=O)[C@H]3CCCN3C(=O)[C@H](CO)NC(=O)[C@@H](NC(=O)[C@@H](NC(=O)[C@H](CCN)NC(=O)[C@@H](N)Cc3c[nH]c4ccccc34)C(C)C)CSSC2(C)C)[C@@H](C)O)CCNC(=O)[C@H]([C@@H](C)O)NC(=O)[C@H](CCN)NC(=O)[C@H](CCN)NC1=O [Ex. 162] (H-W[Dab]VCS[dP]PL[Pen]Y[Dab]G[Dab]T[Dab][Dab][Dab][dL]L[Dab][Dab]T; disulfide 4-9; lactam 16-C)	0.5 µg/mL	0.25 µg/mL	0.125 µg/mL	2 µg/mL	1 µg/mL	0.25 µg/mL	0.0625 µg/mL	<1%
CCCC[C@@H]1NC(=O)[C@@H]2CCCN2C(=O)[C@H]2CCCN2C(=O)[C@H](CO)NC(=O)[C@H](CO)NC(=O)[C@H](C(C)(C)C)NC(=O)[C@H](CCN)NC(=O)[C@H](Cc2c[nH]c3ccccc23)NC(=O)[C@@H](N)CSSC[C@@H](C(=O)N[C@@H](CCN)C(=O)N[C@H](CCN)C(=O)N[C@H]2CCNC(=O)[C@H]([C@@H](C)O)NC(=O)[C@H](CCN)NC(=O)[C@H](CCN)NC(=O)[C@H](CC(C)C)NC(=O)[C@@H](Cc3ccccc3)NC(=O)[C@H](CCN)NC2=O)NC(=O)[C@H](CCCN)NC(=O)[C@H](CCN)NC(=O)[C@H](Cc2ccc(O)cc2)NC(=O)[C@H](CO)NC1=O [Ex. 205] (H-CW[Dab][Tle]SS[dP]P[Nle]SY[Dab][Orn]C[Dab][dDab][Dab][Dab][dF]L[Dab][Dab]T; disulfide 1-14; lactam 17-C)	2 µg/mL	0.5 µg/mL	0.5 µg/mL	2 µg/mL	0.25 µg/mL	2 µg/mL	0.25 µg/mL	<1%
CC(C)C[C@@H]1NC(=O)[C@@H](Cc2ccccc2)NC(=O)[C@H](CCN)NC(=O)[C@@H](NC(=O)[C@H](CCN)NC(=O)[C@H](CCCN)NC(=O)[C@@H]2CSSC[C@H](NC(=O)[C@@H](N)Cc3c[nH]c4ccccc34)C(=O)N[C@@H](C(C)(C)C)C(=O)N[C@H]3CC(=O)NCC[C@H](NC(=O)[C@H](C(C)C)NC(=O)[C@@H]4CCCN4C(=O)[C@H]4CCN4C(=O)[C@H]([C@@H](C)O)NC3=O)C(=O)N[C@@H](Cc3ccc(O)cc3)C(=O)N2)CCNC(=O)[C@H]([C@@H](C)O)NC(=O)[C@H](CCN)NC(=O)[C@H](CCN)NC1=O [Ex. 191] (H-WC[Tle]DT[dAze]PV[Dab]YC[Orn][Dab][Dab][Dab][dF]L[Dab][Dab]T; disulfide 2-11; lactam 4-9, 14-C)	0.5 µg/mL	0.125 µg/mL	0.25 µg/mL	0.5 µg/mL	1 µg/mL	0.25 µg/mL	0.5 µg/mL	6%
CCCC[C@@H]1NC(=O)[C@@H]2CCCN2C(=O)[C@H]2CCCN2C(=O)[C@H](CO)NC(=O)[C@H](C)NC(=O)[C@H](C(C)(C)C)NC(=O)[C@@H]2CCC(=O)NCC[C@H](NC(=O)[C@H](Cc3ccc(O)cc3)NC(=O)[C@H](CN)NC1=O)C(=O)N[C@@H](CCCN)C(=O)N[C@H](C(=O)N[C@H](CCN)C(=O)N[C@H]1CCNC(=O)[C@H]([C@@H](C)O)NC(=O)[C@H](CCN)NC(=O)[C@H](CCN)NC(=O)[C@H](CC(C)C)NC(=O)[C@@H](Cc3ccccc3)NC(=O)[C@H](CCN)NC1=O)CSSC[C@H](N)C(=O)N[C@@H](Cc1c[nH]c3ccccc13)C(=O)N2 [Ex. 210] (H-CWE[Tle]AS[dP]P[Nle][Dap]Y[Dab][Orn]C[dDab][Dab][Dab][dF]L[Dab][Dab]T; disulfide 1-14; lactam 3-12, 16-C)	1 µg/mL	0.5 µg/mL	2 µg/mL	4 µg/mL	1 µg/mL	0.5 µg/mL	0.25 µg/mL	1%
CCCC[C@@H]1NC(=O)[C@@H]2CCCN2C(=O)[C@H]2CCCN2C(=O)[C@H](CO)NC(=O)[C@H](CO)NC(=O)[C@H](C(C)(C)C)NC(=O)[C@@H](NC(=O)[C@@H](N)Cc2c[nH]c3ccccc23)CSSC[C@@H](C(=O)N[C@H](CCN)C(=O)N[C@@H](CCN)C(=O)N[C@H](CCN)C(=O)N[C@H]2CCNC(=O)[C@H]([C@@H](C)O)NC(=O)[C@H](CCN)NC(=O)[C@H](CCN)NC(=O)[C@H](CC(C)C)NC(=O)[C@@H](Cc3ccccc3)NC(=O)[C@H](CCN)NC2=O)NC(=O)[C@H](Cc2ccc(O)cc2)NC(=O)[C@H](CO)NC1=O [Ex. 106] (H-WC[Tle]SS[dP]P[Nle]SYC[dDab][Dab][dDab][Dab][Dab][dF]L[Dab][Dab]T; disulfide 2-11; lactam 15-C)	0.25 µg/mL	0.125 µg/mL	0.125 µg/mL	0.5 µg/mL	0.25 µg/mL	0.125 µg/mL	0.125 µg/mL	1%
CCCC[C@@H]1NC(=O)[C@@H]2CCCN2C(=O)[C@H]2CCCN2C(=O)[C@H](CO)NC(=O)[C@H](CO)NC(=O)[C@H](C(C)(C)C)NC(=O)[C@H](CCN)NC(=O)[C@H](Cc2c[nH]c3ccccc23)NC(=O)[C@@H](N)CSSC[C@@H](C(=O)N[C@H](CCCC)C(=O)N[C@H](CCN)C(=O)N[C@H]2CCNC(=O)[C@H]([C@@H](C)O)NC(=O)[C@H](CCN)NC(=O)[C@H](CCN)NC(=O)[C@H](CC(C)C)NC(=O)[C@@H](Cc3ccccc3)NC(=O)[C@H](CCN)NC2=O)NC(=O)[C@H](CCCN)NC(=O)[C@H](CCN)NC(=O)[C@H](Cc2ccc(O)cc2)NC(=O)[C@H](CO)NC1=O [Ex. 200] (H-CW[Dab][Tle]SS[dP]P[Nle]SY[Dab][Orn]C[dNle][dDab][Dab][Dab][dF]L[Dab][Dab]T; disulfide 1-14; lactam 17-C)	0.5 µg/mL	0.5 µg/mL	1 µg/mL	1 µg/mL	2 µg/mL	0.25 µg/mL	0.125 µg/mL	<1%
